Assay results published in US12312346B2, “Pyridopyrimidine compounds and methods of their use” (Tufts Medical Center, Inc., priority 2018, dated 2025).
“Also recorded” adds a separate entry of the source.

Assays:
[1] = test system: human leukemia cell line T-ALL1 (with WT Notch1); test: Cell cycle (PI staining, S-G2-M cells) and cell number, T-ALL1; type: cell-based
Protocol: FIG. 2A is a series of charts showing representative cell cycle profiles of human leukemia cell line T-ALL1 (with WT Notch1) treated with a vehicle (V) (for palbociclib (PD) or compound GD), PD (0.5 μM), or compound GD at 1, 2.5, 5, 10, and 20 μM for 6 days.
FIG. 2B is a histogram summarizing the cell cycle distribution of the T-ALL1 cell line in FIG. 2A. Data shown are mean±S.D. (n=6); *P<0.05 vs its vehicle controls, t-test.
FIG. 2C is a chart showing the percentage of S-G2-M cells in samples in FIGS. 2A and 2B. […]
(§1) Table 2: Experimental Procedures: sensitivity to CDK6 kinase activity inhibition was tested by incubating different cell lines in the presence of CDK6 inhibitor GD007/PBS for either 24 hours for detecting the status of pRB-780 phosphorylation, or 5 days for determining the effect of GD007 on cell proliferation. (1) By immunoblotting (WB), we will detect phospho-pRB-S^780, one of the substrates of CDK6 kinase; (2) By using FACS analysis, we will stain treated cells with Propidium Iodide (PI), a commonly used fluorescent intercalator, to measure the subpopulation of cell cycle to reveal any impact of CDK6 inhibition on cell proliferation; (3) cell numbers will be counted using hemocytometer.

[2] = test system: human lung cancer cell line A549; test: Cell cycle (PI staining, S-G2-M cells) and pRB immunoblot, A549; type: cell-based
Protocol: FIG. 4A is a series of charts showing representative cell cycle profiles of human lung cancer cell line A549 treated with a vehicle (V) (for palbociclib (PD) or compound GD), PD (0.5 μM), or compound GD at 0.005, 0.05, 0.5, and 5 μM for 6 days.
FIG. 4B is a histogram showing the cell cycle distribution of A549 cell line in FIG. 4A. Data shown are mean±S.D. (n=6); *P<0.05 vs its vehicle controls, t-test.
FIG. 4C is a chart showing the percentage of S-G2-M cells in FIG. 4B. IC50 for compound GD is ca. 0.05 μM.
FIG. […] Tubulin was used as a loading control.
as §1

[3] = test system: mouse KO-MEFs (CDK6^−/− MEFs); test: Cell cycle and cell number, CDK6-/- MEFs (KO-MEFs); type: cell-based
Protocol: FIG. 6E is a series of charts showing representative cell cycle profiles of mouse KO-MEFs treated with a vehicle (V), PD (0.5 μM), or compound GD at 1, 5, 10, and 20 μM for 6 days.
FIG. 6F is a histogram summarizing the cell cycle distribution in FIG. 6E. Data shown are mean±S.D. (n=6); *P<0.05 vs its vehicle control, t-test.
FIG. 6G is a bar graph summarizing the cell numbers of KO-MEFs treated with PD (0.5 μM) or compound GD at different doses for 6 days. Data shown are mean±S.D. (n=6); *P<0.05 vs its vehicle control, t-test.
(§2) HCl salt of 6-acetyl-5-methyl-2-((4-(piperazin-1-ylmethyl)thiazol-2-yl)amino)pyrido[2,3-d]pyrimidin-7(8H)-one (Compound GD) prepared in Example 1 was examined for its inhibitory activity in cancer cell lines and WT and CDK6^−/− mouse embryonic fibroblasts (MEFs) and stromal vascular fractions (SVFs). MEFs and SVFs are enriched with mesenchymal stem cells (MSC) and pre-adipocytes which can differentiate into a variety of cell types, including adipocytes.

mouse WT SVFs = test: Cell number, WT-SVFs; type: cell-based; conditions: 6 days; GD 0.1-10 μM
Protocol: FIG. 7A is a bar graph showing the cell numbers of WT-SVFs treated with LEE (10 μM) or compound GD at 0.1, 0.5, 1.0, 5.0, and 10 μM for 6 days. Data shown are mean±S.D. (n=6); *P<0.05 vs its vehicle control, t-test.
as §2

[4] = test system: phosphorylated pRB at SER-780 in U87 cells; test: Immunoblot of phosphorylated pRB (SER-780), U87; type: cell-based, human
Protocol: FIG. 5C is an image of a representative immunoblot showing the levels of phosphorylated pRB at SER-780 in U87 cells following treatment of these cells with a vehicle, PD, or compound GD for 24 hours. Tubulin was used as loading control.
as §1

[5] = test system: differentiated SVF cells (beige cell formation); test: Oil Red O staining of differentiated SVF cells with BAT inducers; type: cell-based; conditions: GD 5 μM, FIG. 8B
Protocol: FIG. 8B is an image of Oil Red O staining of differentiated SVF cells treated with a vehicle or compound GD (5 μM) in the presence of brown adipose tissue (BAT) inducers. Scale bar: 100 μM
Beige cells are associated with protection against obesity and metabolic syndrome (WO 2017/161253). Accordingly, compound GD and related compounds of the invention can be used for treating obesity and related metabolic diseases.

[6] = Fat pad mass and body weight of WT mice on normal chow diet; type: in vivo; conditions: WT (B6) mice, NCD
Protocol: FIGS. 9A and 9B are images showing a close view of the iWAT (FIG. 9A) and eWAT (FIG. 9B) and mass of fat pads from mice treated with GD or PBS, as indicated. The mass of various fat pads was normalized to body weight of mice on NCD at the end of experiments. Data shown are mean±S.D. (n=8 for each group), *p<0.05, t-test, GD vs PBS.
FIG. 9D is a graph showing body weight of age-matched female WT mice on NCD over 27-day observation period. GD/PBS commenced by gavage daily for 21 days at 200 mg/kg/day at age of 6-weeks-old. Body weight shown are mean±S.D. (n=8 for each group), *p<0.05, t-test, GD vs PBS.

Breast Cancer: MCF-7 = test: PI staining and pRB-780 immunoblot, MCF-7; type: cell-based; conditions: PI staining and WB: P-RB-780
Protocol: as §1

Prostate Cancer: DU145 = test: pRB-780 immunoblot, DU145; type: cell-based; conditions: WB: P-RB-780
Protocol: as §1

[7] = 200 mg/kg/day for 21 days, normalized to body weight

## CC(=O)c1c(C)c2cnc(Nc3nc(CN4CCNCC4)cs3)nc2[nH]c1=O [Compound GD, 6-acetyl-5-methyl-2-((4-(piperazin-1-ylmethyl)thiazol-2-yl)amino)pyrido[2,3-d]pyrimidin-7(8H)-one]
[1]; Homo sapiens, TALL-1, 144 h, T-ALL1, 6 days, read-out: IC50 (percentage of S-G2-M cells, growth inhibition)
  IC50: ~1100 nM
[1]; Leukemic cells: TALL1, PI Staining, and cell number counting
  Compound GD Efficacy: Efficacious
[2]; FIGS. 4A-4D
  growth of lung cancer cell line A549: inhibits growth
[2]; Homo sapiens, 144 h, A549, 6 days, read-out: IC50 (percentage of S-G2-M cells)
  IC50: ~50 nM
[2]; Lung Cancer: A549, WB: P-RB-780, PI staining
  Compound GD Efficacy: Efficacious
[3]; 6 days, GD 1-20 μM, PD 0.5 μM
  proliferation of CDK6−/− MEFs: little effect
[3]; concluded from WT versus CDK6−/− MEFs and SVFs
  preference for CDK6 over CDK4: preferentially inhibits CDK6 over CDK4
Mouse WT SVFs
  proliferation of mouse WT SVFs: inhibited proliferation
[4]; Brain Tumor: U87 human primary glioblastoma cell line, WB: P-RB-780
  Compound GD Efficacy: Efficacious
[4]; glioblastoma cell line U87, 24 hours
  pRB phosphorylation: inhibits pRB phosphorylation
[5]
  beige cell formation: induced beige cell formation
[6]; 200 mg/kg/day
  body weight, most significant reduction compared to PBS treated mice: 7.1 % reduction
[6]; 200 mg/kg/day by gavage for 21 days, 200 mg/kg/day
  fat pad mass vs PBS-treated mice: dramatically and significantly decreased; also recorded: reduced fat mass
[6]; [7]
  fat pad mass, eWAT, reduction vs PBS-treated mice: ~2.0 fold reduction
  fat pad mass, iWAT, reduction vs PBS-treated mice: ~1.42 fold reduction
Breast Cancer: MCF-7
  Compound GD Efficacy: No
Prostate Cancer: DU145
  Compound GD Efficacy: No
